According to PMC12598805, “Crystal Structure–Activity Relationship of Some MeO Phenylacrylonitriles: Dual Antimicrobial–Cytotoxic Effects and in Silico Perspectives” (ChemistryOpen, 2025):
Converted amounts (≈) assume the structure as drawn.

Tests used:
[1] = test system: Staphylococcus aureus (ATCC 29213); assay: MBC by sub-culture from wells without growth; format: cell-based; conditions: ATCC29213, S.aureus
Method: (§1) Staphylococcus aureus (ATCC 29213) […]
(§2) ATCC: American Type Culture Collection; NRRL: Northern Regional Research Laboratory The compounds 2(a-c) obtained could only be completely solubilised with dimethyl sulphoxide (DMSO) and the highest possible stock solutions of 50 mg.mL-1 were prepared. […]
(§3) 3.1. Determination of Minimum Inhibition Concentration (MIC)
(§4) The minimum inhibition concentration (MIC) values of the compounds 2(a-c) against the test bacteria used in the study were determined according to the broth microdilution method.[1-2] MHB or SDB was used as test medium and bacterial and yeast suspensions were prepared at 0.5 Mc Farland concentration for each test bacteria. Double layer serial dilutions were prepared in "U" type 96-well microtiter plates. Medium+bacteria suspensions containing only medium in the first row, medium+bacteria in the second row and the final concentrations of the synthesised substances in the other rows between 25 mg.mL-1 and […] were added to the wells with a final volume of 200
(§5) μL. Ampicillin, Kanamycin and Amphotericin B standard antibiotics were used as positive controls.
Bacteria were incubated at 37±0.1 °C and C. albicans at 30±0.1 °C for 24-48 hours and the lowest concentration without growth was determined as MIC. Tests were performed in two parallel runs and mean values were given as a result. In order to estimate “the minimum bactericidal/fungicidal concentrations (MBC/MFC) of the synthesised acrylonitrile derivatives “needed to indicate […] killing of the original inoculum,” 10 μl was taken from the wells with no observed growth and further sub-cultured onto their agar media (MHA and SDA for bacterial and fungal strains, respectively).[3] […]

[2] = test system: Staphylococcus aureus (ATCC 29213); assay: Broth microdilution MIC; format: cell-based; conditions: ATCC29213, S.aureus
Method: as §1, §2, §3, §4, §5
Bacteria were incubated at 37±0.1 °C and C. albicans at 30±0.1 °C for 24-48 hours and the lowest concentration without growth was determined as MIC. Tests were performed in two parallel runs and mean values were given as a result. […]

[3] = Cytotoxicity on healthy cells, CCK8 cell viability; format: cell-based, mouse; conditions: mouse, L929 mouse fibroblast cells, read-out: Cytotoxic activity IC50; for IC50 at 24 h: L929, 24 h; for IC50 at 48 h: L929, 48 h
Text: (§6) We investigated the cytotoxic effects of acrylonitrile derivatives 2(a–c) on human lung carcinoma (A549, CCL‐185) cells purchased from American Culture Collection and human breast carcinoma (MCF‐7) cells purchased from Republic of Turkey Ministry of Agriculture and Forestry Şap Institute, (HUKUK, 00092502), In addition, mouse fibroblast cells (L929, CCL‐1) purchased from American Culture Collection were used to observe the effects of the compounds on healthy cells. In 25 T Flask, A549 cells were grown in dulbecco's modified eagle's medium, MCF‐7, and L929 cells were grown in eagle's minimum essential medium (EMEM), 10% fetal bovine serum and 1% Penicillin‐Streptomycin at 37 °C in a 5% CO2 and 100% humidified incubator. Cell proliferation was checked every day. Cells were taken into the experiment when the cell density reached 70% to 80%. (See Supporting Information for experimental preparation of biological studies).
(§7) The compounds 2a, 2b, and 2c were dissolved in 99.8% Dimethyl sulfoxide (DMSO) respectively, as
(§8) 10 mM main stock. To prepare the doses of acrylonitrile compounds used in the experiment to be
(§9) applied to the cells, five different concentrations of 31.25; 62.5; 125; 250 and 500 μM were prepared
(§10) by diluting the main stock solutions (10 mM) with the medium selected according to the cells. 5-
(§11) Fluorouracil (5-FU) was selected as a positive control in the study. After the 5-FU main stock solution
(§12) was dissolved with DMSO to be 10 mM, the concentrations to be used were diluted with the selected
(§13) media and made ready for the experimental plan. The concentrations used for 5-FU were prepared in
(§14) the same doses used for acrylonitrile derivatives. For the negative control group, groups containing
(§15) only media and no substance were used. Prepared acrylonitrile compounds and 5-FU concentrations
(§16) were added to the wells in three replicates for each dose, and their effects on cell viability at 24 and 48
(§17) Trypan blue solution (Gibco, 1525061) was used to distinguish between living and dead cells in the
(§18) study. Trypan blue passes uncontrollably through the membrane of dead cells that have lost their cell
(§19) membrane integrity and stains the cell blue. Living cells, on the other hand, are not stained because
(§20) Live cell counts were performed using trypan blue using a
(§21) cell counter (Logos Luna II).
(§22) In order to detach the cells adhering to the flasks from the bottom, 500 μL of 0.25% Trypsin-EDTA
(§23) (Gibco, 15400054) solution was added and treated for five minutes.
(§24) detach from the bottom under an inverted microscope (Zeiss Primovert, Germany), medium containing
(§25) 10% FBS was added. After centrifugation at 300 g for 5 minutes and discarding the medium, 1 mL of
(§26) medium was added and the cells were seeded into 96-well culture dishes as 1x10^4 cells in 100 μL per
(§27) Cell Counting Kit 8 (CCK8; Medchem, 146436) was used to determine cell viability. After adding 20 μL
(§28) of CCK8 solution to each well in the dark, 96-well culture dishes were wrapped with aluminum foil and
(§29) kept in a CO2 incubator at 37 °C for 2 hr. Then, it was automatically read with a microplate reader
(§30) (Chromate) at 450 and 630 nm wavelengths. The following formula was used to determine cell
(§31) % Viability = (Sample Well−Blank) (Negative Control−Blank)×100 (1)
(§32) The half-maximal inhibitory concentration (IC50) was calculated as 50% cell death causing dose
(§33) compared to the control group. All data are given as the mean percent fraction of control ± SEM.
(§34) Statistical analysis was done by one-way analysis of variance (ANOVA), followed by Tukey’s multiple
(§35) comparison tests. IBM SPSS Statistics 22 was used to utilize statistical analysis. […]

[4] = test system: mouse fibroblast cells (L929, CCL‐1); assay: Cytotoxicity on healthy cells, CCK8 cell viability; format: cell-based
Text: as §6, §7, §8, §9, §10, §11, §12, §13, §14, §15, §16, §17, §18, §19, §20, §21, §22, §23, §24, §25, §26, §27, §28, §29, §30, §31, §32, §33, §34, §35

MIC [2]	SMILES	MBC [1]	IC50 at 24 h [3]	IC50 at 48 h [3]	decrease in cell viability ([4]; L929, 24 h, 31.25 μM)	decrease in cell viability ([4]; L929, 24 h, 62.5 μM)	decrease in cell viability ([4]; L929, 24 h, 125 μM)	decrease in cell viability ([4]; L929, 24 h, 250 μM)	decrease in cell viability ([4]; L929, 24 h, 500 μM)	decrease in cell viability ([4]; L929, 48 h, 31.25 μM)	decrease in cell viability ([4]; L929, 48 h, 62.5 μM)	decrease in cell viability ([4]; L929, 48 h, 125 μM)	decrease in cell viability ([4]; L929, 48 h, 250 μM)	decrease in cell viability ([4]; L929, 48 h, 500 μM)	IC50 ([4]; L929, 24 h, read-out: Cytotoxic activity IC50)
12.5 mg/mL (≈ 53.1 mM)	COc1ccc(C=C(C#N)c2ccccc2)cc1 [2a, 3‐(4‐methoxyphenyl)‐2‐phenylacrylonitrile]	25 mg/mL (≈ 106 mM)	351 µM	< 31.2 µM	13%	19%	16%	35%	73%	52%	53%	55%	54%	87%	–
12.5 mg/mL (≈ 49.4 mM)	COc1ccc(/C=C(\C#N)c2ccc(F)cc2)cc1 [2b]	25 mg/mL (≈ 98.7 mM)	< 250 µM	< 31.2 µM	45%	44%	43%	50%	75%	52%	54%	53%	53%	80%	250 µM
6.25 mg/mL (≈ 16.8 mM)	COc1ccc(/C=C(\C#N)c2cc(C(F)(F)F)cc(C(F)(F)F)c2)cc1 [2c]	12.5 mg/mL (≈ 33.7 mM)	410 µM	391 µM	8%	10%	19%	12%	71%	14%	16%	20%	24%	80%	–
